# What was measured:
# [1] = molecular target: Tyrosine-protein kinase Fer (Homo sapiens) (UniProt P16591); experiment: Inhibition of human FER catalytic domain expressed in baculovirus assessed as substrate phosphorylation using fluorescence-labelled peptides as substrate at 95 uM after 90 mins by microfluidic peptide phosphorylation assay
# [2] = molecular target: Fibroblast growth factor receptor 1 (Homo sapiens) (UniProt P11362); experiment: Inhibition of human FGFR1 catalytic domain expressed in baculovirus assessed as substrate phosphorylation using fluorescence-labelled peptides as substrate at 0.1 uM after 90 mins by microfluidic peptide phosphorylation assay
# [3] = molecular target: Cyclin-dependent kinase 2 (Homo sapiens) (UniProt P24941); experiment: Inhibition of human full length CDK2 expressed in baculovirus assessed as substrate phosphorylation using fluorescence-labelled peptides as substrate at 0.1 uM after 90 mins by microfluidic peptide phosphorylation assay
# [4] = molecular target: Serine/threonine-protein kinase pim-1 (Homo sapiens) (UniProt P11309); experiment: Inhibition of human full length PIM1 expressed in baculovirus assessed as substrate phosphorylation using fluorescence-labelled peptides as substrate at […] after 90 mins by microfluidic peptide phosphorylation assay
# [5] = molecular target: T1, Inhibitor of nuclear factor kappa-B kinase subunit beta (Homo sapiens) (UniProt O14920); experiment: Inhibition of human full length IKK beta expressed in baculovirus assessed as substrate phosphorylation using fluorescence-labelled peptides as substrate at 420 uM after 90 mins by microfluidic peptide phosphorylation assay
# T1 sequence (whole entry): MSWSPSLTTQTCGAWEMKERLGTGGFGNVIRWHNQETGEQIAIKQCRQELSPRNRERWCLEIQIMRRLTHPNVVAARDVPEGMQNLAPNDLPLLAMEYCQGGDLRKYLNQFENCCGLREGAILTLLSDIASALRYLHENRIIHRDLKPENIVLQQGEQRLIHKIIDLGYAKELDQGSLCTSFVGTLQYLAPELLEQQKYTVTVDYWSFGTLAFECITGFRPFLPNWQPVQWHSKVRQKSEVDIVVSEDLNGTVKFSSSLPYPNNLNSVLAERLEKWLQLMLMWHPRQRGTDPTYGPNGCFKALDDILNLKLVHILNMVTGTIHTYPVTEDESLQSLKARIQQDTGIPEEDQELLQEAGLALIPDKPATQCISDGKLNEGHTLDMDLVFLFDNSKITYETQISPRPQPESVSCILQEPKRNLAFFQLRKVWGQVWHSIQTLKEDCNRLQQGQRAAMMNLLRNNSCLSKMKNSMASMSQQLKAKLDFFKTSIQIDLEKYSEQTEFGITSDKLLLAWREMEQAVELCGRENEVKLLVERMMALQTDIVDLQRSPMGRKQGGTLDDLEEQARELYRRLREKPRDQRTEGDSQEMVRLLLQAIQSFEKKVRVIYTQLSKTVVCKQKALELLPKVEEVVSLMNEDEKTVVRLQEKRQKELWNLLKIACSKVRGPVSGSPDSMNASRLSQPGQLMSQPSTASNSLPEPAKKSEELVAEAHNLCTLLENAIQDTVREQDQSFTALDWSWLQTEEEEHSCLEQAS
# [6] = molecular target: Dual specificity tyrosine-phosphorylation-regulated kinase 1A (Rattus norvegicus) (UniProt Q63470); experiment: Inhibition of rat full length DYRK1a expressed in Escherichia coli cell assessed as substrate phosphorylation using fluorescence-labelled peptides as substrate at 420 uM after 90 mins by microfluidic peptide phosphorylation assay
# [7] = molecular target: Ribosomal protein S6 kinase alpha-2 (Homo sapiens) (UniProt Q15349); experiment: Inhibition of human full length RSK3 expressed in baculovirus assessed as substrate phosphorylation using fluorescence-labelled peptides as substrate at 70 uM after 90 mins by microfluidic peptide phosphorylation assay
# [8] = molecular target: T2, Serine/threonine-protein kinase Sgk1 (Homo sapiens) (UniProt O00141); experiment: Inhibition of human truncated SGK1 expressed in baculovirus assessed as substrate phosphorylation using fluorescence-labelled peptides as substrate at 70 uM after 90 mins by microfluidic peptide phosphorylation assay
# T2 sequence (whole entry): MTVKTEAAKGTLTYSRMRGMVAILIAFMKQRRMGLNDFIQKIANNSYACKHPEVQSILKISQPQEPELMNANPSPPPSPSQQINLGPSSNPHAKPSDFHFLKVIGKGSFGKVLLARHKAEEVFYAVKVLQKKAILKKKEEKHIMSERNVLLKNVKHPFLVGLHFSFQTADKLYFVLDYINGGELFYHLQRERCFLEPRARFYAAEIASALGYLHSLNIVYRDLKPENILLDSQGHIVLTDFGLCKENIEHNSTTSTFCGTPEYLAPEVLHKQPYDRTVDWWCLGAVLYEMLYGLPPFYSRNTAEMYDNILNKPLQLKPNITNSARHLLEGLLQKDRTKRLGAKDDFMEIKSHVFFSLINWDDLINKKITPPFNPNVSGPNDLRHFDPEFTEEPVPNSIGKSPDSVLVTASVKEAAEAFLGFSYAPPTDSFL
# [9] = molecular target: T3, Testis-specific serine/threonine-protein kinase 1 (Homo sapiens) (UniProt Q9BXA7); experiment: Inhibition of human full length TSSK1 expressed in baculovirus assessed as substrate phosphorylation using fluorescence-labelled peptides as substrate at 0.2 uM after 90 mins by microfluidic peptide phosphorylation assay
# T3 sequence (whole entry): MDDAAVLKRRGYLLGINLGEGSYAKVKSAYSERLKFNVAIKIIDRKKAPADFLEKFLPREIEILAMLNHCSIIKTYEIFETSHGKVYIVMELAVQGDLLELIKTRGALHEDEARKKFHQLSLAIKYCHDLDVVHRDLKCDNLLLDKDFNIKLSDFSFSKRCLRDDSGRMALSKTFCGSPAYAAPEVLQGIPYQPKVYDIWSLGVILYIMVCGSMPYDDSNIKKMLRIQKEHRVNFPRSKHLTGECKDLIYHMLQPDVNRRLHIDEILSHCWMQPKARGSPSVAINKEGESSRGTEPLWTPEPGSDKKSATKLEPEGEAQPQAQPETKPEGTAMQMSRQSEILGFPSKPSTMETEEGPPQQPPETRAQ
# [10] = molecular target: Fibroblast growth factor receptor 2 (Homo sapiens) (UniProt P21802); experiment: Inhibition of human FGFR2 catalytic domain expressed in baculovirus assessed as substrate phosphorylation using fluorescence-labelled peptides as substrate at 0.2 uM after 90 mins by microfluidic peptide phosphorylation assay
# [11] = molecular target: Calcium/calmodulin-dependent protein kinase type II subunit gamma (Homo sapiens) (UniProt Q13555); experiment: Inhibition of human CAMK2 gamma catalytic domain expressed in baculovirus assessed as substrate phosphorylation using fluorescence-labelled peptides as substrate at 2 uM after 90 mins by microfluidic peptide phosphorylation assay
# [12] = molecular target: RAF proto-oncogene serine/threonine-protein kinase (Homo sapiens) (UniProt P04049); experiment: Inhibition of human truncated c-Raf expressed in baculovirus assessed as substrate phosphorylation using fluorescence-labelled peptides as substrate at 1000 uM after 90 mins by microfluidic peptide phosphorylation assay
# Sequence of RAF proto-oncogene serine/threonine-protein kinase (Homo sapiens) (P04049 whole entry, the tested form may be a part): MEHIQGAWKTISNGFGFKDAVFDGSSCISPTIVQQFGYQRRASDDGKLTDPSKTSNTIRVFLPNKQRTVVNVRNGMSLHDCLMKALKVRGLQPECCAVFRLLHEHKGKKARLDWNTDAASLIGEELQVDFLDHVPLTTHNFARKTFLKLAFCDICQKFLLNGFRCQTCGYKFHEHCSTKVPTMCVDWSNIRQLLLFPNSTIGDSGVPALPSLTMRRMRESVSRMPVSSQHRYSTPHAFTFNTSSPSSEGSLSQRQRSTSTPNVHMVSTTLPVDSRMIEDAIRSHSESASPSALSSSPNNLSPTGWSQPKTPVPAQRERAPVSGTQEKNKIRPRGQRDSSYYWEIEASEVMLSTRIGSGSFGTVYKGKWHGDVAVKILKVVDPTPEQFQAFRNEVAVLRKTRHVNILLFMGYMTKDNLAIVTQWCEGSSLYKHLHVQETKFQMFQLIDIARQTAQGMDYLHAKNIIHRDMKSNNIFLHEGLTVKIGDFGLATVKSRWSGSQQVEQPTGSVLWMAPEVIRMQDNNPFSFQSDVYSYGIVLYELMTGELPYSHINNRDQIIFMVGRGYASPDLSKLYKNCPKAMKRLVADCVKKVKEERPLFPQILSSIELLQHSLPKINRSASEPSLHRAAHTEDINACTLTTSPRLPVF
# Sequence of Fibroblast growth factor receptor 2 (Homo sapiens) (P21802 22-821 limits assumed): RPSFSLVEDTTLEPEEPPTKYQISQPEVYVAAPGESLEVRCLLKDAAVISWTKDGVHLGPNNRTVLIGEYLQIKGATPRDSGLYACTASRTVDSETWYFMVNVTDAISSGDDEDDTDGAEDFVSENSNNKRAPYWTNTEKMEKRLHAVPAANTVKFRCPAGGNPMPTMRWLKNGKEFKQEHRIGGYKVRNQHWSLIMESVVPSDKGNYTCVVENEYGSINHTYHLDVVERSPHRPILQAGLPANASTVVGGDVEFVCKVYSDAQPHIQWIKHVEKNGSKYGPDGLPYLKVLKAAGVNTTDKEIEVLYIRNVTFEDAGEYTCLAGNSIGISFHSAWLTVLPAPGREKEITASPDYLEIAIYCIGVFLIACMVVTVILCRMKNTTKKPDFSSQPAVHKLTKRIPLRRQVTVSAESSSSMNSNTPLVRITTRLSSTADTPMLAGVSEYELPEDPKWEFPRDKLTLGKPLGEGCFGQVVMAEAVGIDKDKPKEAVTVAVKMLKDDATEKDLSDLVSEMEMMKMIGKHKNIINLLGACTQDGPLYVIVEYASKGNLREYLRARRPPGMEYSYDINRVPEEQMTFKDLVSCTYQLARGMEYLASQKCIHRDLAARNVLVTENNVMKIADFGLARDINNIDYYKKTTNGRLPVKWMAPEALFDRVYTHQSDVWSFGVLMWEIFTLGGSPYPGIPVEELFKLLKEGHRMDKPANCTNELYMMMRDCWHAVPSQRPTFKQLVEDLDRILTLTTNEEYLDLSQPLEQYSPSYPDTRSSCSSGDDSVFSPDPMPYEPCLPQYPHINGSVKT
# Sequence of Serine/threonine-protein kinase pim-1 (Homo sapiens) (P11309 whole entry, looked up): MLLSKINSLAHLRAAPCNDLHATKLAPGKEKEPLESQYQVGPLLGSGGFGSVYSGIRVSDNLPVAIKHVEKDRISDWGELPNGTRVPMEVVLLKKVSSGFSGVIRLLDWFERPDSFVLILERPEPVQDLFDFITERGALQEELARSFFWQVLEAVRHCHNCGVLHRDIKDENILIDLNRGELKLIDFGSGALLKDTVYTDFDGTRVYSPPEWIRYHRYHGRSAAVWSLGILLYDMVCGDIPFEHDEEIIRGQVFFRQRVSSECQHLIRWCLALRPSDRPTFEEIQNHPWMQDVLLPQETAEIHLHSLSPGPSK
# Sequence of Ribosomal protein S6 kinase alpha-2 (Homo sapiens) (Q15349 whole entry, the tested form may be a part): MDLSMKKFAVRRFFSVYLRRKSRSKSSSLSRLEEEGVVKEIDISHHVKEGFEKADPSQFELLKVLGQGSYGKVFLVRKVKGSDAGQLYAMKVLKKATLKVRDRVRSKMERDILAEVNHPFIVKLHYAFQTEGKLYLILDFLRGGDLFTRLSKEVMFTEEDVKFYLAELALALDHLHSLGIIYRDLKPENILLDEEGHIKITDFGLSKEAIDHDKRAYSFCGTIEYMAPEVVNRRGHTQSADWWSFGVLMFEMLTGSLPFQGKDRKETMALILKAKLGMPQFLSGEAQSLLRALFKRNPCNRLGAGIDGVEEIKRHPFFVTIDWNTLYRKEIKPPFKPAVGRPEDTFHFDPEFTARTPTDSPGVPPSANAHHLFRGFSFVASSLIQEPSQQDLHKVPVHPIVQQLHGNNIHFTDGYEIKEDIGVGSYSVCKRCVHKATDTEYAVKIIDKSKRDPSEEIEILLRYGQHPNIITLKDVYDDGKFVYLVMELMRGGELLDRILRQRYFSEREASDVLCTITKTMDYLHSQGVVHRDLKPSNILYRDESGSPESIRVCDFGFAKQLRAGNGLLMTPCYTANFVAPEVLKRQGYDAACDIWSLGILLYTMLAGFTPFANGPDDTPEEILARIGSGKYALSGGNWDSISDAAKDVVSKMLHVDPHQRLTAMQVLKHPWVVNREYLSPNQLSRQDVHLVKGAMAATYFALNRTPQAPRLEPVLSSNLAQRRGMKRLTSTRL
# Sequence of Tyrosine-protein kinase Fer (Homo sapiens) (P16591 whole entry, looked up, the tested form may be a part): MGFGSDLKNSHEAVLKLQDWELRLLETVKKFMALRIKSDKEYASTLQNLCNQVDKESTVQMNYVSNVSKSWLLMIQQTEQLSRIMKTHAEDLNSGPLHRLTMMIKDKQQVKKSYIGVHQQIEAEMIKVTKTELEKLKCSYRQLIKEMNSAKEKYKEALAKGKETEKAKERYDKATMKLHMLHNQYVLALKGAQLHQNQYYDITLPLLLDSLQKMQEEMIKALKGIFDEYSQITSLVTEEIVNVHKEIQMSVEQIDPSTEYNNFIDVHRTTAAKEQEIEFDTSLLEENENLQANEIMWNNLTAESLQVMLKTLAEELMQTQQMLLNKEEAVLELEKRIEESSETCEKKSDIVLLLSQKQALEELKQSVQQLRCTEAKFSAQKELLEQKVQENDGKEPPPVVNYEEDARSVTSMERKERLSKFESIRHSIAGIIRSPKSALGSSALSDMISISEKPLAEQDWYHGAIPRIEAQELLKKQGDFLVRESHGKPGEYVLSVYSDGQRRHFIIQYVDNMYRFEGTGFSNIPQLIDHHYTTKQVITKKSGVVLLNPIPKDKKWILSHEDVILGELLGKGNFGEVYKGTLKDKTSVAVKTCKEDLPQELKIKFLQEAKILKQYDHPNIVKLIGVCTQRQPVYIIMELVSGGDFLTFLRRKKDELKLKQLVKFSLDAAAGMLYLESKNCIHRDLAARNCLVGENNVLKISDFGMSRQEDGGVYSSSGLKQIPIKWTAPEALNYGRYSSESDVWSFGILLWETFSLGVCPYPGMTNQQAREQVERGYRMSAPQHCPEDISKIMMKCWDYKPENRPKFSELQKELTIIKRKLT
# Sequence of Calcium/calmodulin-dependent protein kinase type II subunit gamma (Homo sapiens) (Q13555 whole entry, the tested form may be a part): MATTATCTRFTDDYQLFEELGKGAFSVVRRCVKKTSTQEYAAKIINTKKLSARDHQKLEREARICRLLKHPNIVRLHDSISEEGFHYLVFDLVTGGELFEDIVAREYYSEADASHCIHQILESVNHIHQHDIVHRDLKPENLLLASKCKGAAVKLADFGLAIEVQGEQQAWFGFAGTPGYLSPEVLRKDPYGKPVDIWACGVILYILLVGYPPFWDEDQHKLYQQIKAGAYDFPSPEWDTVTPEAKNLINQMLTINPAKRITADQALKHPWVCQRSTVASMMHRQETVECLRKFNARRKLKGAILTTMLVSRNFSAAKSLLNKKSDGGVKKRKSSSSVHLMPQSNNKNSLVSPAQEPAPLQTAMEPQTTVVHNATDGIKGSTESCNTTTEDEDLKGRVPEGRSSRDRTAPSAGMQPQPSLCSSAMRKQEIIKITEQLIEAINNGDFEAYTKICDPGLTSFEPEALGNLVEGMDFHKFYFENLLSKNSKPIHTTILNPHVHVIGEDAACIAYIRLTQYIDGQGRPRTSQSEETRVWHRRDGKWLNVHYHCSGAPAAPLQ
# Sequence of Fibroblast growth factor receptor 1 (Homo sapiens) (P11362 22-822 limits assumed): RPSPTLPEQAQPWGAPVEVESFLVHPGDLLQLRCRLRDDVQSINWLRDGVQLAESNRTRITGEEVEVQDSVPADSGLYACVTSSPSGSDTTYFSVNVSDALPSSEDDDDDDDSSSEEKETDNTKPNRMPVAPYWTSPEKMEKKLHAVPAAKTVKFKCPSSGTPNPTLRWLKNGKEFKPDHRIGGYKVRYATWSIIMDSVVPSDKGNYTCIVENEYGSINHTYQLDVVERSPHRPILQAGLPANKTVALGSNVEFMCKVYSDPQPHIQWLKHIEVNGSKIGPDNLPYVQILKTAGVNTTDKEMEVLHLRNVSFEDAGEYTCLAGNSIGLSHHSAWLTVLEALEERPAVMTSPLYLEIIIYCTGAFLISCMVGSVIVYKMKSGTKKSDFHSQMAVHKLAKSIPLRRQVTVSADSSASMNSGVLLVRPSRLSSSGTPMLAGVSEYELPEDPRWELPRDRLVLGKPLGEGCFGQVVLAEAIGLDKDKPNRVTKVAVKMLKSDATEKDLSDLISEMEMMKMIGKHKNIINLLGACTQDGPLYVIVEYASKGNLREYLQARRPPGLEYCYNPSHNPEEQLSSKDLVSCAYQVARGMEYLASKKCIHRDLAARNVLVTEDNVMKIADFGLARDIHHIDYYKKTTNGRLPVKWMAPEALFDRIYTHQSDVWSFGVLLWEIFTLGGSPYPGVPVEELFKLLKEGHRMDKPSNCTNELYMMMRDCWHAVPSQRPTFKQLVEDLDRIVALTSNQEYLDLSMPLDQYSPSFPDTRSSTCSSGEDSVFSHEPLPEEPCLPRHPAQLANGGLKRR
structure (smiles),measurement,setting,value
NCCc1ccc(-c2ncnc3[nH]cnc23)cc1,inhibition,[1],28%
C[C@H](CN(C)C)Oc1nc(Nc2cc3cccc(Cl)c3cn2)cnc1C#N,inhibition,[2],2.5%
same,inhibition,[3],1.5%
COC(=O)c1cnc(Nc2cnc(C#N)cn2)cc1NCC1CCNCC1,inhibition,[4],7%
c1nc(N2CCOCC2)c2nc[nH]c2n1,inhibition,[5],87%
same,inhibition,[6],77%
CNCc1ccc(-c2ncnc3[nH]cnc23)cc1,inhibition,[7],81%
same,inhibition,[8],48%
Clc1ccc(C2(c3ccc(-c4ncnc5[nH]cnc45)cc3)CCNCC2)cc1,inhibition,[9],67%
same,inhibition,[10],4%
NC1CCN(c2ncnc3[nH]ccc23)CC1,inhibition,[11],0%
c1cnc2[nH]ccc2c1,inhibition,[12],20%

# Source: ChEMBL document CHEMBL3132769, “Fragment growing to retain or alter the selectivity of anchored kinase hinge-binding fragments” (Medchemcomm, 2014)
